Source: BigSolDB 2.1

Structure (SMILES): O=[N+]([O-])c1cc(F)c(F)cc1[N+](=O)[O-]
- solubility (mole fraction) (in 1,2-dichloroethane, 293.15 K): 0.000981
- solubility (mole fraction) (in 1,2-dichloroethane, 298.15 K): 0.00112
- solubility (mole fraction) (in 1,2-dichloroethane, 303.15 K): 0.00128
- solubility (mole fraction) (in 1,2-dichloroethane, 308.15 K): 0.00171
- solubility (mole fraction) (in 1,2-dichloroethane, 313.15 K): 0.00229
- solubility (mole fraction) (in 1,2-dichloroethane, 318.15 K): 0.00314
- solubility (mole fraction) (in 1,2-dichloroethane, 323.15 K): 0.00416
- solubility (mole fraction) (in 1,2-dichloroethane, 328.15 K): 0.00553
- solubility (mole fraction) (in 1,2-dichloroethane, 333.15 K): 0.00752
- solubility (mole fraction) (in benzene, 293.15 K): 0.00143
- solubility (mole fraction) (in benzene, 298.15 K): 0.00152
- solubility (mole fraction) (in benzene, 303.15 K): 0.00173
- solubility (mole fraction) (in benzene, 308.15 K): 0.00216
- solubility (mole fraction) (in benzene, 313.15 K): 0.00286
- solubility (mole fraction) (in benzene, 318.15 K): 0.00384
- solubility (mole fraction) (in benzene, 323.15 K): 0.00499
- solubility (mole fraction) (in benzene, 328.15 K): 0.00647
- solubility (mole fraction) (in benzene, 333.15 K): 0.0086
- solubility (mole fraction) (in chloroform, 293.15 K): 0.000875
- solubility (mole fraction) (in chloroform, 298.15 K): 0.000957
- solubility (mole fraction) (in chloroform, 303.15 K): 0.00111
- solubility (mole fraction) (in chloroform, 308.15 K): 0.00156
- solubility (mole fraction) (in chloroform, 313.15 K): 0.00237
- solubility (mole fraction) (in chloroform, 318.15 K): 0.00339
- solubility (mole fraction) (in chloroform, 323.15 K): 0.00456
- solubility (mole fraction) (in chloroform, 328.15 K): 0.00611
- solubility (mole fraction) (in ethanol, 293.15 K): 0.00011
- solubility (mole fraction) (in ethanol, 298.15 K): 0.00014
- solubility (mole fraction) (in ethanol, 303.15 K): 0.000166
- solubility (mole fraction) (in ethanol, 308.15 K): 0.000246
- solubility (mole fraction) (in ethanol, 313.15 K): 0.000339
- solubility (mole fraction) (in ethanol, 318.15 K): 0.00047
- solubility (mole fraction) (in ethanol, 323.15 K): 0.000662
- solubility (mole fraction) (in ethanol, 328.15 K): 0.000906
- solubility (mole fraction) (in ethanol, 333.15 K): 0.00121
- solubility (mole fraction) (in ethyl acetate, 293.15 K): 0.0019
- solubility (mole fraction) (in ethyl acetate, 298.15 K): 0.00215
- solubility (mole fraction) (in ethyl acetate, 303.15 K): 0.00241
- solubility (mole fraction) (in ethyl acetate, 308.15 K): 0.0028
- solubility (mole fraction) (in ethyl acetate, 313.15 K): 0.00342
- solubility (mole fraction) (in ethyl acetate, 318.15 K): 0.00433
- solubility (mole fraction) (in ethyl acetate, 323.15 K): 0.00554
- solubility (mole fraction) (in ethyl acetate, 328.15 K): 0.00735
- solubility (mole fraction) (in ethyl acetate, 333.15 K): 0.00951
- solubility (mole fraction) (in ethyl formate, 293.15 K): 0.00271
- solubility (mole fraction) (in ethyl formate, 298.15 K): 0.00284
- solubility (mole fraction) (in ethyl formate, 303.15 K): 0.00303
- solubility (mole fraction) (in ethyl formate, 308.15 K): 0.00339
- solubility (mole fraction) (in ethyl formate, 313.15 K): 0.00402
- solubility (mole fraction) (in ethyl formate, 318.15 K): 0.00493
- solubility (mole fraction) (in ethyl formate, 323.15 K): 0.00613
- solubility (mole fraction) (in ethyl formate, 328.15 K): 0.00775
- solubility (mole fraction) (in ethyl formate, 333.15 K): 0.01
- solubility (mole fraction) (in isopropanol, 293.15 K): 3.1e-05
- solubility (mole fraction) (in isopropanol, 298.15 K): 5e-05
- solubility (mole fraction) (in isopropanol, 303.15 K): 6.4e-05
- solubility (mole fraction) (in isopropanol, 308.15 K): 8.9e-05
- solubility (mole fraction) (in isopropanol, 313.15 K): 0.000123
- solubility (mole fraction) (in isopropanol, 318.15 K): 0.000164
- solubility (mole fraction) (in isopropanol, 323.15 K): 0.000215
- solubility (mole fraction) (in isopropanol, 328.15 K): 0.000296
- solubility (mole fraction) (in isopropanol, 333.15 K): 0.00038
- solubility (mole fraction) (in m-xylene, 293.15 K): 0.00176
- solubility (mole fraction) (in m-xylene, 298.15 K): 0.00206
- solubility (mole fraction) (in m-xylene, 303.15 K): 0.00248
- solubility (mole fraction) (in m-xylene, 308.15 K): 0.00303
- solubility (mole fraction) (in m-xylene, 313.15 K): 0.00368
- solubility (mole fraction) (in m-xylene, 318.15 K): 0.00444
- solubility (mole fraction) (in m-xylene, 323.15 K): 0.00531
- solubility (mole fraction) (in m-xylene, 328.15 K): 0.0062
- solubility (mole fraction) (in m-xylene, 333.15 K): 0.00722
- solubility (mole fraction) (in mesitylene, 293.15 K): 0.00238
- solubility (mole fraction) (in mesitylene, 298.15 K): 0.00259
- solubility (mole fraction) (in mesitylene, 303.15 K): 0.00279
- solubility (mole fraction) (in mesitylene, 308.15 K): 0.00309
- solubility (mole fraction) (in mesitylene, 313.15 K): 0.00348
- solubility (mole fraction) (in mesitylene, 318.15 K): 0.00397
- solubility (mole fraction) (in mesitylene, 323.15 K): 0.00459
- solubility (mole fraction) (in mesitylene, 328.15 K): 0.0055
- solubility (mole fraction) (in mesitylene, 333.15 K): 0.00652
- solubility (mole fraction) (in methanol, 293.15 K): 0.00019
- solubility (mole fraction) (in methanol, 298.15 K): 0.000263
- solubility (mole fraction) (in methanol, 303.15 K): 0.000324
- solubility (mole fraction) (in methanol, 308.15 K): 0.000401
- solubility (mole fraction) (in methanol, 313.15 K): 0.000504
- solubility (mole fraction) (in methanol, 318.15 K): 0.000632
- solubility (mole fraction) (in methanol, 323.15 K): 0.000774
- solubility (mole fraction) (in methanol, 328.15 K): 0.000956
- solubility (mole fraction) (in methanol, 333.15 K): 0.00121
- solubility (mole fraction) (in n-butanol, 293.15 K): 3.8e-05
- solubility (mole fraction) (in n-butanol, 298.15 K): 6e-05
- solubility (mole fraction) (in n-butanol, 303.15 K): 9.5e-05
- solubility (mole fraction) (in n-butanol, 308.15 K): 0.000142
- solubility (mole fraction) (in n-butanol, 313.15 K): 0.000198
- solubility (mole fraction) (in n-butanol, 318.15 K): 0.000278
- solubility (mole fraction) (in n-butanol, 323.15 K): 0.000384
- solubility (mole fraction) (in n-butanol, 328.15 K): 0.000546
- solubility (mole fraction) (in n-butanol, 333.15 K): 0.000785
- solubility (mole fraction) (in n-propanol, 293.15 K): 4.5e-05
- solubility (mole fraction) (in n-propanol, 298.15 K): 6.1e-05
- solubility (mole fraction) (in n-propanol, 303.15 K): 8.5e-05
- solubility (mole fraction) (in n-propanol, 308.15 K): 0.00012
- solubility (mole fraction) (in n-propanol, 313.15 K): 0.000186
- solubility (mole fraction) (in n-propanol, 318.15 K): 0.000278
- solubility (mole fraction) (in n-propanol, 323.15 K): 0.000413
- solubility (mole fraction) (in n-propanol, 328.15 K): 0.000595
- solubility (mole fraction) (in n-propanol, 333.15 K): 0.00083
- solubility (mole fraction) (in o-xylene, 293.15 K): 0.00213
- solubility (mole fraction) (in o-xylene, 298.15 K): 0.00236
- solubility (mole fraction) (in o-xylene, 303.15 K): 0.00277
- solubility (mole fraction) (in o-xylene, 308.15 K): 0.00327
- solubility (mole fraction) (in o-xylene, 313.15 K): 0.00377
- solubility (mole fraction) (in o-xylene, 318.15 K): 0.00441
- solubility (mole fraction) (in o-xylene, 323.15 K): 0.00513
- solubility (mole fraction) (in o-xylene, 328.15 K): 0.00598
- solubility (mole fraction) (in o-xylene, 333.15 K): 0.00701
- solubility (mole fraction) (in p-xylene, 293.15 K): 0.00172
- solubility (mole fraction) (in p-xylene, 298.15 K): 0.00199
- solubility (mole fraction) (in p-xylene, 303.15 K): 0.00228
- solubility (mole fraction) (in p-xylene, 308.15 K): 0.00267
- solubility (mole fraction) (in p-xylene, 313.15 K): 0.00323
- solubility (mole fraction) (in p-xylene, 318.15 K): 0.00395
- solubility (mole fraction) (in p-xylene, 323.15 K): 0.00494
- solubility (mole fraction) (in p-xylene, 328.15 K): 0.00647
- solubility (mole fraction) (in p-xylene, 333.15 K): 0.0085
- solubility (mole fraction) (in tetrachloromethane, 298.15 K): 2.2e-05
- solubility (mole fraction) (in tetrachloromethane, 303.15 K): 4.7e-05
- solubility (mole fraction) (in tetrachloromethane, 308.15 K): 9.5e-05
- solubility (mole fraction) (in tetrachloromethane, 313.15 K): 0.000168
- solubility (mole fraction) (in tetrachloromethane, 318.15 K): 0.000276
- solubility (mole fraction) (in tetrachloromethane, 323.15 K): 0.000426
- solubility (mole fraction) (in tetrachloromethane, 328.15 K): 0.000614
- solubility (mole fraction) (in tetrachloromethane, 333.15 K): 0.000854
- solubility (mole fraction) (in toluene, 293.15 K): 0.00135
- solubility (mole fraction) (in toluene, 298.15 K): 0.00154
- solubility (mole fraction) (in toluene, 303.15 K): 0.00201
- solubility (mole fraction) (in toluene, 308.15 K): 0.00268
- solubility (mole fraction) (in toluene, 313.15 K): 0.00349
- solubility (mole fraction) (in toluene, 318.15 K): 0.00448
- solubility (mole fraction) (in toluene, 323.15 K): 0.00551
- solubility (mole fraction) (in toluene, 328.15 K): 0.00669
- solubility (mole fraction) (in toluene, 333.15 K): 0.00781
